Converted amounts (≈) assume the structure as drawn.
What was measured:
HepG2 cells = assay: Mammalian cell toxicity (Cell Titer-Glo); assay type: cell-based
Description: Mammalian Cell Toxicity. HepG2 cells were seeded overnight at 500 cells/well in 384-well plate, then incubated with compounds (10-point concentration titration) for 48 h. Cell Titer-Glo® reagent ([…]) was added to each well and after 10-minute incubation at room temperature the luminescent signal was measured using an Envision plate reader (Perkin Elmer).

[1] = target: Hsp90 Nuclear Binding Domain (NBD) (Aspergillus fumigatus, UniProt P40292); assay: Surface Plasmon Resonance (SPR) binding, A. fumigatus Hsp90 NBD; conditions: biotinylated Hsp90 NBD on streptavidin chip, 25° C., 1:1 binding model; NB undefined
How it was run: (§1)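 Biacore S200 at 25° C; AviTag-biotinylated recombinant Hsp90 NBD captured on streptavidin chip at 2000-2500 RU. Compound dilution series run in HBS-P pH 7.4 with 2% DMSO at 40 μL/min, 60 s association and 600 s dissociation. Sensorgrams fitted to a 1:1 binding model.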

[2] = target: Hsp90 Nuclear Binding Domain (NBD) (Candida albicans (strain SC5314 / ATCC MYA-2876) (Yeast), UniProt P46598); assay: Surface Plasmon Resonance (SPR) binding, C. albicans Hsp90 NBD; conditions: biotinylated Hsp90 NBD on streptavidin chip, 25° C., 1:1 binding model
How it was run: as §1

CaCl2 = assay: Antifungal sensitivity testing (broth microdilution MIC); assay type: cell-based; conditions: 96-well broth microdilution
How it was run: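 Broth microdilution MIC per a modified published protocol; compounds dissolved in DMSO, fluconazole in water; duplicates in at least two independent experiments. Fungicidal activity checked by spotting MIC-plate cultures onto YPD agar, read after 24 h at 30° C.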

Hsp90 Nuclear Binding Domain (NBD) (Aspergillus fumigatus, UniProt P40292), sequence (P40292 whole entry, looked up, the tested form may be a part): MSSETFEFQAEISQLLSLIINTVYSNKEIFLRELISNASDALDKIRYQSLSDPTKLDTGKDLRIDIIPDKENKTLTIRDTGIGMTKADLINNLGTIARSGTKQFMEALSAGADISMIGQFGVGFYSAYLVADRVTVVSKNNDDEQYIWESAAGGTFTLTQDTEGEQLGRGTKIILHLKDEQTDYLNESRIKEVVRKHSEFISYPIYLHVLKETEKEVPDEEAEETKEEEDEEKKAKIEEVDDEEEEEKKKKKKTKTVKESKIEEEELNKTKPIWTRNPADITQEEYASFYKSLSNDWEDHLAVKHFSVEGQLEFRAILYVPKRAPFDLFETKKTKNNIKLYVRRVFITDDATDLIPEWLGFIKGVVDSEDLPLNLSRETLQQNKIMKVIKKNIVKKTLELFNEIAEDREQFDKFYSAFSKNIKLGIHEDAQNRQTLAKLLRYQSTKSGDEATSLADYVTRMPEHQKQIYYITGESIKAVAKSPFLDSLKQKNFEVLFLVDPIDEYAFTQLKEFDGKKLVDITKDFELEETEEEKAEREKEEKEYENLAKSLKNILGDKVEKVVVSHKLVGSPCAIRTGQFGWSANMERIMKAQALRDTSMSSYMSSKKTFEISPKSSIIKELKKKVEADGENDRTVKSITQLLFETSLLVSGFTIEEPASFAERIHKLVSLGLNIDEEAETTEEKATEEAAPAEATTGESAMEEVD
Hsp90 Nuclear Binding Domain (NBD) (Candida albicans (strain SC5314 / ATCC MYA-2876) (Yeast), UniProt P46598), sequence (P46598 1-218 limits assumed): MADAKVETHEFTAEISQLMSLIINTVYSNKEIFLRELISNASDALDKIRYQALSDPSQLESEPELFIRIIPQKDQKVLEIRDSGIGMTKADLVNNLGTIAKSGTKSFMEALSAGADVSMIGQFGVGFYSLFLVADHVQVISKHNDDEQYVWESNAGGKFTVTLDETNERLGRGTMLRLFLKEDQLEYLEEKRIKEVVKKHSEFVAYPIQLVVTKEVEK

Structure (SMILES) | HepG2 MIC50 (HepG2 cells; Table 6, 48 h incubation) [µM] | Kd [1] [nM] | Kd [2] [nM] | MIC50 (CaCl2; Table 4) [µM] | MIC50 (CaCl2; Table 6) [µM] | HepG2 MIC50 (HepG2 cells; Table 5, 48 h incubation) [µM]
Nc1nc2sc(CNC3CCN(C[C@@](O)(Cn4cncn4)c4ccc(F)cc4F)CC3)cc2n(-c2ccc3c(c2)N(c2ccccc2)CCO3)c1=O [Compound I-62, (R)-3-amino-6-(((1-(2-(2,4-difluorophenyl)-2-hydroxy-3-(1H-1,2,4-triazol-1-yl)propyl)piperidin-4-yl)amino)methyl)-1-(4-phenyl-3,4-dihydro-2H-benzo[b][1,4]oxazin-6-yl)thieno[2,3-b]pyrazin-2(1H)-one] | 10.6 | 423 | 234 | 3 (≈ 2.18 µg/mL) | 3 (≈ 2.18 µg/mL) | 
Nc1nc2sc(CNC3CCN(CCCCCC(O)(Cn4cncn4)c4ccc(F)cc4F)CC3)cc2n(-c2ccc3c(c2)N(c2ccccc2)CCO3)c1=O (stereo not shown) [Compound I-118, 3-amino-6-(((1-(6-(2,4-difluorophenyl)-6-hydroxy-7-(1H-1,2,4-triazol-1-yl)heptyl)piperidin-4-yl)amino)methyl)-1-(4-phenyl-3,4-dihydro-2H-benzo[b][1,4]oxazin-6-yl)thieno[2,3-b]pyrazin-2(1H)-one] | 3 | 406 | 191 | 2 (≈ 1.56 µg/mL) | 2 (≈ 1.56 µg/mL) | 3
Nc1nc2sc(CNC3CCN(CC(O)(Cn4cncn4)c4ccc(F)cc4F)CC3)cc2n(-c2ccc3c(c2)N(c2ccccc2)CCO3)c1=O (stereo not shown) [Compound I-47, 3-amino-6-(((1-(2-(2,4-difluorophenyl)-2-hydroxy-3-(1H-1,2,4-triazol-1-yl)propyl)piperidin-4-yl)amino)methyl)-1-(4-phenyl-3,4-dihydro-2H-benzo[b][1,4]oxazin-6-yl)thieno[2,3-b]pyrazin-2(1H)-one] | 4.4 | 550 | 289 | 1 (≈ 0.726 µg/mL) | 1 (≈ 0.726 µg/mL) | 4.4
Nc1nc2sc(C(=O)N[C@@H]3CCN(CCC(O)(Cn4cncn4)c4ccc(F)cc4F)C3)cc2n(-c2ccc3c(c2)N(c2ccccc2)CCO3)c1=O (stereo partly drawn) [Compound I-36, 3-amino-N-((3R)-1-(3-(2,4-difluorophenyl)-3-hydroxy-4-(1H-1,2,4-triazol-1-yl)butyl)pyrrolidin-3-yl)-2-oxo-1-(4-phenyl-3,4-dihydro-2H-benzo[b][1,4]oxazin-6-yl)-1,2-dihydrothieno[2,3-b]pyrazine-6-carboxamide] | 1.9 | 3.7 | 2.1 | 8 (≈ 5.92 µg/mL) | 8 (≈ 5.92 µg/mL) | 
Nc1nc2sc(C(=O)NC3CCN(C[C@](O)(Cn4cncn4)c4ccc(F)cc4F)CC3)cc2n(-c2ccc3ccn(-c4ccccc4)c3c2)c1=O [Compound I-23, (S)-3-amino-N-(1-(2-(2,4-difluorophenyl)-2-hydroxy-3-(1H-1,2,4-triazol-1-yl)propyl)piperidin-4-yl)-2-oxo-1-(1-phenyl-1H-indol-6-yl)-1,2-dihydrothieno[2,3-b]pyrazine-6-carboxamide] | >50 | 46 | 28.6 | 0.35 (≈ 0.253 µg/mL) | 0.35 (≈ 0.253 µg/mL) | >50
Nc1nc2sc(CNC3CCN(CC[C@@](O)(Cn4cncn4)c4ccc(F)cc4F)CC3)cc2n(-c2ccc3c(c2)N(c2ccccc2)CCO3)c1=O [Compound I-133, (S)-3-amino-6-(((1-(3-(2,4-difluorophenyl)-3-hydroxy-4-(1H-1,2,4-triazol-1-yl)butyl)piperidin-4-yl)amino)methyl)-1-(4-phenyl-3,4-dihydro-2H-benzo[b][1,4]oxazin-6-yl)thieno[2,3-b]pyrazin-2(1H)-one] | 16.8 | 620 | 300 | 2.13 (≈ 1.58 µg/mL) | 2.13 (≈ 1.58 µg/mL) | 
Nc1nc2sc(CN[C@H]3CCCN(C[C@](O)(Cn4cncn4)c4ccc(F)cc4F)C3)cc2n(-c2ccc3c(c2)N(c2ccccc2)CCO3)c1=O [Compound I-130, 3-amino-6-((((S)-1-((S)-2-(2,4-difluorophenyl)-2-hydroxy-3-(1H-1,2,4-triazol-1-yl)propyl)piperidin-3-yl)amino)methyl)-1-(4-phenyl-3,4-dihydro-2H-benzo[b][1,4]oxazin-6-yl)thieno[2,3-b]pyrazin-2(1H)-one] | >20 | 2190 | 1580 | 1.75 (≈ 1.27 µg/mL) | 1.75 (≈ 1.27 µg/mL) | >20
Nc1nc2sc(C(=O)NC3CCN(CCCC(O)(Cn4cncn4)c4ccc(F)cc4F)CC3)cc2n(-c2ccc3c(c2)N(c2ccccc2)CCO3)c1=O (stereo not shown) [Compound I-64, 3-amino-N-(1-(4-(2,4-difluorophenyl)-4-hydroxy-5-(1H-1,2,4-triazol-1-yl)pentyl)piperidin-4-yl)-2-oxo-1-(4-phenyl-3,4-dihydro-2H-benzo[b][1,4]oxazin-6-yl)-1,2-dihydrothieno[2,3-b]pyrazine-6-carboxamide] | 2 | 19.3 | 0.9 | 3.12 (≈ 2.4 µg/mL) | 3.13 (≈ 2.4 µg/mL) | 
Nc1nc2sc(CNC3CCN(CC(O)(Cn4ccnc4)c4ccc(F)cc4F)CC3)cc2n(-c2ccc3c(c2)N(c2ccccc2)CCO3)c1=O (stereo not shown) [Compound I-139, 3-amino-6-(((1-(2-(2,4-difluorophenyl)-2-hydroxy-3-(1H-imidazol-1-yl)propyl)piperidin-4-yl)amino)methyl)-1-(4-phenyl-3,4-dihydro-2H-benzo[b][1,4]oxazin-6-yl)thieno[2,3-b]pyrazin-2(1H)-one] | 3.9 | 246 | 151 | 1.2 (≈ 0.87 µg/mL) | 1.2 (≈ 0.87 µg/mL) | 3.9
Cc1ccc(-n2c(=O)c(N)nc3sc(C(=O)NC4CCN(CC(O)(Cn5cncn5)c5ccc(F)cc5F)CC4)cc32)cc1Oc1ccccc1 (stereo not shown) [Compound I-12, 3-amino-N-(1-(2-(2,4-difluorophenyl)-2-hydroxy-3-(1H-1,2,4-triazol-1-yl)propyl)piperidin-4-yl)-1-(4-methyl-3-phenoxyphenyl)-2-oxo-1,2-dihydrothieno[2,3-b]pyrazine-6-carboxamide] | >10 | 431 | 146 | 0.18 (≈ 0.128 µg/mL) | 0.18 (≈ 0.128 µg/mL) | >10
CC1(NC(=O)c2cc3c(nc(N)c(=O)n3-c3ccc4c(c3)N(c3ccccc3)CCO4)s2)CCN(C[C@](O)(Cn2cncn2)c2ccc(F)cc2F)CC1 [Compound I-53, (S)-3-amino-N-(1-(2-(2,4-difluorophenyl)-2-hydroxy-3-(1H-1,2,4-triazol-1-yl)propyl)-4-methylpiperidin-4-yl)-2-oxo-1-(4-phenyl-3,4-dihydro-2H-benzo[b][1,4]oxazin-6-yl)-1,2-dihydrothieno[2,3-b]pyrazine-6-carboxamide] | 4 | 23.6 | 1.3 | 1.5 (≈ 1.13 µg/mL) | 1.5 (≈ 1.13 µg/mL) | 4
Nc1nc2sc(CNC3CCN(CCC(O)(Cn4cncn4)c4ccc(F)cc4F)CC3)cc2n(-c2ccc3c(c2)N(c2ccccc2)CCO3)c1=O (stereo not shown) [Compound I-72, 3-amino-6-(((1-(3-(2,4-difluorophenyl)-3-hydroxy-4-(1H-1,2,4-triazol-1-yl)butyl)piperidin-4-yl)amino)methyl)-1-(4-phenyl-3,4-dihydro-2H-benzo[b][1,4]oxazin-6-yl)thieno[2,3-b]pyrazin-2(1H)-one] | 4.6 | 197 | 121 | 7.5 (≈ 5.55 µg/mL) | 7.5 (≈ 5.55 µg/mL) | 
Nc1nc2sc(C(=O)N[C@@H]3CCN(CC[C@@](O)(Cn4cncn4)c4ccc(F)cc4F)C3)cc2n(-c2ccc3c(c2)N(c2ccccc2)CCO3)c1=O [Compound I-70, 3-amino-N-((R)-1-((S)-3-(2,4-difluorophenyl)-3-hydroxy-4-(1H-1,2,4-triazol-1-yl)butyl)pyrrolidin-3-yl)-2-oxo-1-(4-phenyl-3,4-dihydro-2H-benzo[b][1,4]oxazin-6-yl)-1,2-dihydrothieno[2,3-b]pyrazine-6-carboxamide] | 1.5 | 2.9 | 0.3 | 5.75 (≈ 4.25 µg/mL) | 5.75 (≈ 4.25 µg/mL) | 
Nc1nc2sc(CNCC3CCN(C[C@](O)(Cn4cncn4)c4ccc(F)cc4F)CC3)cc2n(-c2ccc3c(c2)N(c2ccccc2)CCO3)c1=O [Compound I-131, (S)-3-amino-6-((((1-(2-(2,4-difluorophenyl)-2-hydroxy-3-(1H-1,2,4-triazol-1-yl)propyl)piperidin-4-yl)methyl)amino)methyl)-1-(4-phenyl-3,4-dihydro-2H-benzo[b][1,4]oxazin-6-yl)thieno[2,3-b]pyrazin-2(1H)-one] | 9 |  |  | 1.25 (≈ 0.925 µg/mL) | 1.25 (≈ 0.925 µg/mL) | 9
Nc1nc2sc(CN[C@@H]3CCN(CCC(O)(Cn4cncn4)c4ccc(F)cc4F)C3)cc2n(-c2ccc3c(c2)N(c2ccccc2)CCO3)c1=O (stereo partly drawn) [Compound I-120, 3-amino-6-((((3R)-1-(3-(2,4-difluorophenyl)-3-hydroxy-4-(1H-1,2,4-triazol-1-yl)butyl)pyrrolidin-3-yl)amino)methyl)-1-(4-phenyl-3,4-dihydro-2H-benzo[b][1,4]oxazin-6-yl)thieno[2,3-b]pyrazin-2(1H)-one] |  | 265 | 179 | 17.5 (≈ 12.7 µg/mL) |  | 
